Experimental data as given in patent US11643391B2, “Prodrugs and conjugates of dimethyltryptamine” (priority 2021, dated 2023).

Experiments:
[1] = Stability in Mouse Plasma; type: in vitro ADME
[2] = Stability in SGF without pepsin; type: physicochemical
[3] = Stability in SGF with pepsin; type: physicochemical
physchem = settings: buffer, pH 6.5
[4] = Table 8, if calculated T½ < 0, T½ reported as 9999 min

SMILES: CC(OC(=O)C(C)C)OC(=O)n1cc(CCN(C)C)c2ccccc21 (centres unmarked) [VLS-03-10]
- Remaining Percentage ([1]; Table 9, 0 min): 100.00%
- Remaining Percentage ([1]; Table 9, 15 min): 0.00%
- Remaining Percentage ([1]; Table 9, 30 min): 0.00%
- Remaining Percentage ([1]; Table 9, 60 min): 0.00%
- Remaining Percentage ([1]; Table 9, 120 min): 0.00%
- Peak Area of MRM: 188.7/144.0 (analyte VLS-03-10 Parent) ([2]; 0 min): 5.29E+03
- Peak Area of MRM: 188.7/144.0 (analyte VLS-03-10 Parent) ([2]; 30 min): 4.98E+03
- Peak Area of MRM: 188.7/144.0 (analyte VLS-03-10 Parent) ([2]; 60 min): 4.66E+03
- Peak Area of MRM: 188.7/144.0 (analyte VLS-03-10 Parent) ([2]; 120 min): 4.93E+03
- Peak Area of MRM: 188.7/144.0 (analyte VLS-03-10 Parent) ([2]; 240 min): 4.61E+03
- Remaining Percentage ([2]; Table 8, 0 min): 100.00%
- Remaining Percentage ([2]; Table 8, 30 min): 99.86%
- Remaining Percentage ([2]; Table 8, 60 min): 104.95%
- Remaining Percentage ([2]; Table 8, 120 min): 98.41%
- Remaining Percentage ([2]; Table 8, 240 min): 98.86%
- half-life [2, 4]: 117 h
- Peak Area of MRM: 188.7/144.0 (analyte VLS-03-10 Parent) ([2]; VLS-03-10 standard): 3.46E+03
- Peak Area of MRM: 188.7/144.0 (analyte VLS-03-10 Parent) ([3]; 0 min): 5.13E+03
- Peak Area of MRM: 188.7/144.0 (analyte VLS-03-10 Parent) ([3]; 30 min): 5.10E+03
- Peak Area of MRM: 188.7/144.0 (analyte VLS-03-10 Parent) ([3]; 60 min): 5.25E+03
- Peak Area of MRM: 188.7/144.0 (analyte VLS-03-10 Parent) ([3]; 120 min): 5.32E+03
- Peak Area of MRM: 188.7/144.0 (analyte VLS-03-10 Parent) ([3]; 240 min): 5.28E+03
- Remaining Percentage ([3]; Table 8, 0 min): 100.00%
- Remaining Percentage ([3]; Table 8, 30 min): 96.82%
- Remaining Percentage ([3]; Table 8, 60 min): 93.09%
- Remaining Percentage ([3]; Table 8, 120 min): 91.42%
- Remaining Percentage ([3]; Table 8, 240 min): 89.32%
- half-life [3, 4]: 26.7 h
- Peak Area of MRM: 188.7/144.0 (analyte VLS-03-10 Parent) ([3]; VLS-03-10 standard): 4.05E+03
- Peak Area of MRM: 188.7/144.0 (analyte VLS-03-10 Parent) (Stability in PBS pH 6.5; 0 min): 5.32E+03
- Peak Area of MRM: 188.7/144.0 (analyte VLS-03-10 Parent) (Stability in PBS pH 6.5; 30 min): 4.68E+03
- Peak Area of MRM: 188.7/144.0 (analyte VLS-03-10 Parent) (Stability in PBS pH 6.5; 60 min): 5.00E+03
- Peak Area of MRM: 188.7/144.0 (analyte VLS-03-10 Parent) (Stability in PBS pH 6.5; 120 min): 4.72E+03
- Peak Area of MRM: 188.7/144.0 (analyte VLS-03-10 Parent) (Stability in PBS pH 6.5; 240 min): 4.95E+03
- Remaining Percentage (Stability in PBS pH 6.5; Table 8, 0 min): 100.00%
- Remaining Percentage (Stability in PBS pH 6.5; Table 8, 30 min): 92.62%
- Remaining Percentage (Stability in PBS pH 6.5; Table 8, 60 min): 100.03%
- Remaining Percentage (Stability in PBS pH 6.5; Table 8, 120 min): 92.63%
- Remaining Percentage (Stability in PBS pH 6.5; Table 8, 240 min): 97.66%
- Peak Area of MRM: 188.7/144.0 (analyte VLS-03-10 Parent) (Stability in PBS pH 6.5; VLS-03-10 standard): 4.34E+03
- half-life (physchem): 331 h
